# “And” between values parts separate entries of the source, which are not always exact repeats. Equal values may be shown once.
# Key:
# Type in all cases: cell-based
# PDEδ = PDEδ (Homo sapiens, UniProt O43924); test: PDEδ levels by Western blot in Jurkat cells; design: endogenous in cells; host or cells: Jurkat; conditions: 6 h; for PDEδ degradation activity compared with degrader 5: 10 μM
# BRD2 [1] = molecular target: T1, BRD2 (Homo sapiens, UniProt P25440); test: BRD2 levels by Western blot in Jurkat cells; design: endogenous in cells; host or cells: Jurkat; Hep G2; MDA-MB-231; KBM7 (WT, DCAF11 KO, DDB1 KO)
# T1 sequence (P25440 whole entry): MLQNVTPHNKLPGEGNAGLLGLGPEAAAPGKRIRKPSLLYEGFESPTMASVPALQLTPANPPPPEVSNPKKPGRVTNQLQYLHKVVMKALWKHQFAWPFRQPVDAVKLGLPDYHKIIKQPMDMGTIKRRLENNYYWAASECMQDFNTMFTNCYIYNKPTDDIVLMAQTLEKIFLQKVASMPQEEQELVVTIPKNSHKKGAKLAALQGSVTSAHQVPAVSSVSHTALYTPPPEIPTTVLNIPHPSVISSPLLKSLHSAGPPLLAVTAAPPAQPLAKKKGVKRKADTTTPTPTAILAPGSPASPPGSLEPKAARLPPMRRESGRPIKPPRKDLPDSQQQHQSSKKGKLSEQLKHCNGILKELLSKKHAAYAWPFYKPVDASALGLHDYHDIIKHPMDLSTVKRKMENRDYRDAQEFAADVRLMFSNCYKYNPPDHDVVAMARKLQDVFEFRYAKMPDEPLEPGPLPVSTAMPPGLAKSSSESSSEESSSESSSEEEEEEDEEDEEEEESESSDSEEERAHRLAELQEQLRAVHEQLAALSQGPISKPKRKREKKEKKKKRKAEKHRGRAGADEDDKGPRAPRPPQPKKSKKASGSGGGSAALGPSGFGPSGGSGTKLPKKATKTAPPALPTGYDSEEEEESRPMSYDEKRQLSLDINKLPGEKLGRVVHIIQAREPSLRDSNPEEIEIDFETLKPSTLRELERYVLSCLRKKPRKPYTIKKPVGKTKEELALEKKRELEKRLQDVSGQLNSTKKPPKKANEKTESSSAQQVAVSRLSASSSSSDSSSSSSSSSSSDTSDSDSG
# Description: (§1) Cells were washed with PBS and lysed in lysis buffer (50 mM Tris-HCl, pH 7.4, 150 mM NaCl, 1% Triton X-100, 1% sodium deoxycholate, 0.1% SDS) with complete protease inhibitor cocktail (Roche, 11836170001) for 30 min on ice. For Ramos cells, cell pellets were lysed in lysis buffer (50 mM Tris-HCl, pH 8, 150 mM NaCl, 1% NP-40, 0.5% sodium deoxycholate) with complete protease inhibitor cocktail. After centrifugation at 16,000 x g, the supernatant was transferred into a new tube and the protein concentration was determined by DC protein assay (BIO-RAD, 5000116). Proteins were separated by SDS-PAGE and transferred to a PVDF membrane (Thermo scientific, 0.45 μm, 88518). For PDEδ, BRD2, GAPDH, BRD4, Vinculin and BTK, the membranes were blocked with Intercept® Blocking Buffer (LI-COR Biosciences, 927-70001) at room temperature for 1 h. The primary antibodies for these proteins were diluted with Intercept® Blocking Buffer (1:500 for PDEδ, 1:3000 for Vinculin, and 1:1000 for other proteins) and incubated with the membranes overnight at 4 °C. Membranes were washed with PBS + 0.1% Tween 20 (PBS-T) five times and incubated with secondary antibodies conjugated to IRDye® Infrared Fluorescent Dyes (1:5000, LI-COR Biosciences) at room temperature for 1 h with protection from light. After washing the membrane, signals were visualized using the ChemiDoc MP Imaging System (BIO-RAD Laboratories). For detection of LC3B, BRD3, BLK, DCAF11, DDB1 RBX1, FIP200, V5- and FLAG-Tag the membranes were blocked with 5% milk in PBS-T at room temperature for 1 h. The primary antibodies for these proteins were diluted in 5% milk in PBS-T buffer (1:200 for BRD3, 1:1000 for other proteins) and incubated with the membranes overnight at 4 °C. Membranes were washed with PBS-T five times and incubated with HRP secondary antibodies (1:1500) at room temperature for 1 h. After washing the membrane, protein detection was performed using Western blotting detection reagent (Thermo Scientific, 34095) and the ChemiDoc MP Imaging System (BIO-RAD). Relative band intensities were quantified using Image Lab (BIO-RAD).
# BRD2 [2] = molecular target: T1, BRD2; test: BRD2 levels by Western blot in KBM7 cells (WT, DCAF11 knockout, DDB1 knockout); design: endogenous in cells; host or cells: KBM7 (WT, DCAF11 KO, DDB1 KO); conditions: 9 at 3 μM, 10 at 10 μM, 11 at 10 μM; 6 h
# Description: as §1
# DCAF11- or FIP200 (RB1CC1)-targeting sgRNAs were lentivirally packaged using PEI transfection of Lenti-X cells. The viral supernatant was harvested after 72 h, cleared of cellular debris by filtration through a 0.45-µm PES filter and stored in aliquots at −80 °C. The appropriate amount of viral supernatant was transduced into KBM7 cells (1 × 10^6 cells/mL) via spinfection (2000 rpm, 1 h, 37 °C) with polybrene (8 µg/mL). Two days post transduction, the cells were selected with puromycin (1 µg/mL) for a total of 5 days, after which the knockout pools were validated via western blotting.
# [3] = Cell viability assay (CellTiter-Glo) in Jurkat cells; conditions: human, Jurkat cells
# Description: (§2) Jurkat cells (3 × 10^3) and Hep G2 cells (3.5 × 10^3) were seeded in 96-well plates in 100 μL culture medium. Cells were treated with compounds dissolved in 50 μl medium at the indicated concentration for 72 h, at the same time, one plate of cells without compounds treatment was used for the cell count at time zero. After adding 40 μl of CellTiter-Glo® reagent (Promega, G7571) to each well for 10 min at room temperature, the luminescence was measured on a Spark® Multimode Microplate Reader (Tecan). The data was analyzed by the GraphPad Prism 9.0.
# Jurkat cells = test: as above; conditions: for Relative cell viability (%): Jurkat cells, 72 h, Fig. 4k; for Cell viability (%) relative to DMSO: individual replicates, Supplementary Fig. 7g
# Description: as §2
# PDEδ, sequence (O43924 whole entry): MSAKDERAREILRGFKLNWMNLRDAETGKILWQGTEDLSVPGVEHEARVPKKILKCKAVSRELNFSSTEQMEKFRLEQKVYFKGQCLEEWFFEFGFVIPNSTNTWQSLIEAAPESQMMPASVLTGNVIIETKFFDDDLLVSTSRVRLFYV
structure (smiles),measurement,setting,value
"Cc1ccc(-n2nc3c(=O)n(CCCC(=O)NCCc4ccc(C(=O)NCCOCCOCCOCCOc5c(Br)cc(/C=C6\C(=O)Nc7ccc(I)cc76)cc5Br)cc4)nc(C)c3c2C)cc1 [Compound 6, (Z)-N-(2-(2-(2-(2-(2,6-dibromo-4-((5-iodo-2-oxoindolin-3-ylidene)methyl)phenoxy)ethoxy)ethoxy)ethoxy)ethyl)-4-(2-(4-(3,4-dimethyl-7-oxo-2-(p-tolyl)-2,7-dihydro-6H-pyrazolo[3,4-d]pyridazin-6-yl)butanamido)ethyl)benzamide]",remaining activity at 10 µM,"PDEδ; Jurkat, DMSO pretreatment 2 h, then 10 μM, 6h, Fig. 1h, read-out: PDEδ/Vinculin intensity (relative to DMSO control group)",55.4%
Cc1sc2c(c1C)C(c1ccc(Cl)cc1)=N[C@@H](CC(=O)NCCOCCOCCOCCOc1c(Br)cc(/C=C3\C(=O)Nc4ccc(I)cc43)cc1Br)c1nnc(C)n1-2 [Compound 11],"efficiency of BRD2 degradation, 10 versus iodo analog 11",BRD2 [1]; 6 h,comparable efficiency of BRD2 degradation
same,BRD2 degradation in DCAF11 knockout (KO1 and KO2) KBM7 cells,BRD2 [2],abolished
Cc1sc2c(c1C)C(c1ccc(Cl)cc1)=NC(CC(=O)NCCOCCOCCOCCOc1c(Br)cc(C=C3C(=O)N(c4ccccc4)c4ccccc43)cc1Br)c1nnc(C)n1-2 (stereo not drawn) [Compound 49],remaining activity at 3 µM,"BRD2 [1]; Jurkat, 6 h, 3 μM, 6 h, Fig. 4j, read-out: BRD2/Vinculin intensity (relative to DMSO control group)",12.6%
Cc1ccc(-n2nc3c(=O)n(CCCC(=O)NCCc4ccc(C(=O)NCCOCCOCCOCCOc5c(Br)cc(C=C6C(=O)Nc7cc(Br)ccc76)cc5Br)cc4)nc(C)c3c2C)cc1 [Compound 54],PDEδ degradation activity compared with degrader 5,PDEδ,comparable or better degradation activity
same,completeness of PDEδ degradation,PDEδ,did not induce complete degradation
Cc1ccc(-n2nc3c(=O)n(CCCC(=O)NCCc4ccc(C(=O)NCCOCCOCCOCCOc5c(Br)cc(C=C6C(=O)N(c7ccccc7)c7ccccc76)cc5Br)cc4)nc(C)c3c2C)cc1 [Compound 55],PDEδ degradation activity compared with degrader 5,PDEδ,comparable or better degradation activity
same,completeness of PDEδ degradation,PDEδ,did not induce complete degradation
"Cc1sc2c(c1C)C(c1ccc(Cl)cc1)=N[C@@H](CC(=O)OC(C)(C)C)c1nnc(C)n1-2 [JQ1, reference compound]","viability at 72 h, 10 nmol/L","[3]; concentration 10 nmol/L, individual replicates, Supplementary Fig. 7g, read-out: Cell viability (%) relative to DMSO",94.3%
same,"viability at 72 h, 30 nmol/L","[3]; concentration 30 nmol/L, individual replicates, Supplementary Fig. 7g, read-out: Cell viability (%) relative to DMSO",90.8%
same,"viability at 72 h, 100 nmol/L","[3]; concentration 100 nmol/L, individual replicates, Supplementary Fig. 7g, read-out: Cell viability (%) relative to DMSO",82.6%
same,"viability at 72 h, 300 nmol/L","[3]; concentration 300 nmol/L, individual replicates, Supplementary Fig. 7g, read-out: Cell viability (%) relative to DMSO",69%
same,"viability at 72 h, 1000 nmol/L","[3]; concentration 1000 nmol/L, individual replicates, Supplementary Fig. 7g, read-out: Cell viability (%) relative to DMSO",54.6%
same,"viability at 72 h, 3000 nmol/L","[3]; concentration 3000 nmol/L, individual replicates, Supplementary Fig. 7g, read-out: Cell viability (%) relative to DMSO",46%
same,"viability at 72 h, 10000 nmol/L","[3]; concentration 10000 nmol/L, individual replicates, Supplementary Fig. 7g, read-out: Cell viability (%) relative to DMSO",46.5%
same,"viability at 72 h, 30000 nmol/L","[3]; concentration 30000 nmol/L, individual replicates, Supplementary Fig. 7g, read-out: Cell viability (%) relative to DMSO",40.9%
same,"viability at 72 h, 0.01 µM","[3]; 72 h, 10 nM, Fig. 4k, read-out: Relative cell viability (%)",89.4%
same,"viability at 72 h, 0.03 µM","[3]; 72 h, 30 nM, Fig. 4k, read-out: Relative cell viability (%)",77.8%
same,"viability at 72 h, 0.1 µM","[3]; 72 h, 100 nM, Fig. 4k, read-out: Relative cell viability (%)",52.1%
same,"viability at 72 h, 0.3 µM","[3]; 72 h, 300 nM, Fig. 4k, read-out: Relative cell viability (%)",35%
same,"viability at 72 h, 1 µM","[3]; 72 h, 1000 nM, Fig. 4k, read-out: Relative cell viability (%)",18.1%
same,"viability at 72 h, 3 µM","[3]; 72 h, 3000 nM, Fig. 4k, read-out: Relative cell viability (%)",8.86%
same,"viability at 72 h, 10 µM","[3]; 72 h, 10000 nM, Fig. 4k, read-out: Relative cell viability (%)",4.59%
same,"viability at 72 h, 30 µM","[3]; 72 h, 30000 nM, Fig. 4k, read-out: Relative cell viability (%)",1.85%
same,Relative cell viability (%),"Jurkat cells; 10 nM, 0.01 µM",100.371% and 106.106%
same,Relative cell viability (%),"Jurkat cells; 30 nM, 0.03 µM",87.8283% and 96.2473%
same,Relative cell viability (%),"Jurkat cells; 100 nM, 0.1 µM",64.4714% and 60.7516%
same,Relative cell viability (%),"Jurkat cells; 300 nM, 0.3 µM",45.1617% and 37.3276%
same,Relative cell viability (%),"Jurkat cells; 1000 nM, 1 µM",18.9902% and 17.7354%
same,Relative cell viability (%),"Jurkat cells; 3000 nM, 3 µM",9.435% and 7.082%
same,Relative cell viability (%),"Jurkat cells; 10000 nM, 10 µM",4.364% and 3.464%
same,Relative cell viability (%),"Jurkat cells; 30000 nM, 30 µM",1.255% and 1.237%
same,Cell viability (%) relative to DMSO,Jurkat cells; concentration 10 nmol/L,103.479% and 107.527%
same,Cell viability (%) relative to DMSO,Jurkat cells; concentration 30 nmol/L,101.884% and 107.914%
same,Cell viability (%) relative to DMSO,Jurkat cells; concentration 100 nmol/L,89.9727% and 100.534%
same,Cell viability (%) relative to DMSO,Jurkat cells; concentration 300 nmol/L,75.4252% and 84.9435%
same,Cell viability (%) relative to DMSO,Jurkat cells; concentration 1000 nmol/L,55.019% and 62.5193%
same,Cell viability (%) relative to DMSO,Jurkat cells; concentration 3000 nmol/L,46.7418% and 50.7086%
same,Cell viability (%) relative to DMSO,Jurkat cells; concentration 10000 nmol/L,42.9072% and 46.8783%
same,Cell viability (%) relative to DMSO,Jurkat cells; concentration 30000 nmol/L,37.1426% and 41.0159%
same,"BRD2 protein levels, ligands alone or in combination","BRD2 [1]; 3 μM, 4 h",did not reduce BRD2 protein levels
"Cc1ncsc1-c1ccc(CNC(=O)[C@@H]2C[C@@H](O)CN2C(=O)[C@@H](NC(=O)COCCOCCOCCNC(=O)C[C@@H]2N=C(c3ccc(Cl)cc3)c3c(sc(C)c3C)-n3c(C)nnc32)C(C)(C)C)cc1 [MZ1, reference compound]",BRD2 levels after washout,"BRD2 [1]; 10 μM, 5 h prior to washout",can be washed out
